These results are taken from US20260091082A1, “CYCLIC PEPTIDE DERIVATIVE COMPOSITION FOR TREATING OR PREVENTING EYE DISEASE” (DKS Co. Ltd., priority 2022, published 2026).

SMILES strings stand for the structures. Where “and” joins values, the source holds several entries; their conditions need not be identical. Identical values can stand only once.

The test system of the experiment is anterior chamber aqueous humor pressure load rat model. In words: Retinal thickness (IPL, INL, ONL) in retinal damage model induced by anterior chamber aqueous humor pressure load. Type of experiment: in vivo, Rat; Slc: SD. The following applies: for Thickness of INL (μm) / Thickness of IPL (μm) / Thickness of ONL (μm): 10 mg/mL intravenous (1 mL/kg once) about 30 minutes before ischemic load (test group 4), 14 days after model creation, mean ± S.E., 10 animals. How it is done: • Name: Compound 9 • Source: Synthesized in the above Examples • Used amount: 0.4 mL (50 mg/mL solution) • Storage conditions: Freezing, light shielding
Method for preparing test substance (1 mg/mL): A high concentration solution prepared at 50 mg/mL was diluted 50 times with a medium to prepare a 1 mg/mL administration solution.
• Name: MK-801 • Distributor: SIGMA-ALDRICH • Use amount: 0.0501 g • Storage condition: refrigerated (2° C. to 8° C.)
Method for preparing positive control substance (10 mg/mL): 0.0501 g was weighed out and made up to a total volume of 5 mL with a control substance (physiological saline).
• Species and strains: Rat; Slc: SD • Number of animals on arrival and sex: 50 males • Age in weeks at arrival: 6 weeks old • Body weight range at arrival: 147.2 to 170.0 g • Source: Japan SLC, Inc.
Grouping was performed two days before the first creation of the retinal damage model induced by an anterior chamber aqueous humor pressure load. Using the daily body weight as an index, stratified random allocation was performed using SAS (Ver. 9.3, SAS Institute Japan Ltd.) and EXSUS (Ver. 8.0, CAC Croit Corporation) so that an average value of the body weights of each group was approximately uniform.
• Administration route: Eyedrop administration, intravenous administration • Administration method (eyedrop): Eyedrop administration was performed on a treated eye (right eye) of a rat using a micropipette 4 times a day (at intervals of 1.5 hours or more). • Administration method (intravenous): The amount of administration solution, calculated from the body weight on the day of administration, was administered from the tail vein using a syringe and an injection needle about 30 minutes before ischemic load. • Time of administration: Administration was performed according to the following schedule.
1. 10 mg/kg xylazine hydrochloride was intramuscularly administered on the model creation day (day 0). A rat was placed in an anesthesia box and subjected to general anesthesia with isoflurane (5%, oxygen:nitrous oxide=1:3). When anesthesia was effective, the rat was taken out of the anesthesia box, an inhalation anesthetic mask was worn, and anesthesia was maintained with isoflurane (1% to 5%, oxygen nitrous oxide=1:3).
2. The body temperature was maintained at 37° C. with a warming mat, and a mydrin P ophthalmic solution was instilled in the right eye (treated eye) of the rat to dilate the pupil, then the cravit ophthalmic solution 1.5% (Santen Pharmaceutical Co., Ltd.) was instilled.
3. A bottle of an IV bag containing physiological saline was previously suspended so that a water surface was 155 cm (100 mmHg or more) higher than the eye of the rat. The IV bag was connected to a pediatric infusion set (Terumo Corporation), a 27 G injection needle thereof was inserted into and fixed to the anterior chamber while slightly dripping the liquid from a needle tip. The model was created in the light phase (6:00 to 18:00) in consideration of the diurnal variation of the intraocular pressure.
4. After the needle was inserted into the anterior chamber, pressure (100 mmHg or more) was loaded and maintained in the anterior chamber by associating the reflux system.
5. After an ischemic load for 45 minutes, the injection needle and the like were removed, the inhalation anesthetic mask was removed, and the rat was sufficiently woken up under a warming mat, and then returned to the cage.
6. For 2 days after surgery, 10 mg/kg xylazine hydrochloride was intramuscularly administered as an analgesic for the purpose of alleviating the pain after the treatment.
1. Fourteen days after model creation, general anesthesia was performed with isoflurane (5%, oxygen:nitrous oxide=1:3), euthanasia was then performed by exsanguination, a suture was placed as a marker at the 12 o'clock position of the ocular conjunctiva, and eyeball enucleation was performed.
2. […]

Where [1] appears, read: 10 mg/mL intravenous, right eye, 600 μm from optic disk, mean per animal.
Setting [2] is: 10 mg/mL intravenous, right eye, 900 μm from optic disk, individual measurements per animal.
The mark [3] stands for this setting: 10 mg/mL intravenous, right eye, 900 μm from optic disk, mean per animal.
Where [4] appears, read: MK-801, 10 mg/mL intravenous, right eye, individual animals 401-410.
The mark [5] stands for this setting: test group 4 (positive control, intravenous).

For `C[C@]12N[C@H](Cc3ccccc31)c1ccccc12` [MK-801, reference compound], under “10 mg/mL intravenous, right eye, 600 μm from optic disk, individual measurements per animal”, the “Thickness of IPL (μm), Distance from Optic Disk 600 μm” value is 51.638 μm and 52.865 μm and 43.668 μm and 44.847 μm and 43.645 μm and 46.040 μm and 48.131 μm and 48.555 μm and 40.323 μm and 42.059 μm and 40.708 μm and 38.245 μm and 23.016 μm and 30.373 μm and 47.349 μm and 49.055 μm and 51.482 μm and 47.356 μm and 46.081 μm and 48.016 μm and 49.876 μm and 42.369 μm and 44.364 μm and 47.408 μm and 44.018 μm and 42.681 μm and 28.572 μm and 45.620 μm and 44.033 μm and 47.914 μm. For the same molecule, under setting [1], the “Thickness of INL (μm), Distance from Optic Disk 600 μm, Mean” value is 37.378 μm and 28.006 μm and 30.469 μm and 44.484 μm and 31.392 μm and 28.027 μm and 18.807 μm and 31.969 μm and 25.534 μm and 35.604 μm; the “Thickness of IPL (μm), Distance from Optic Disk 600 μm, Mean” value is 51.460 μm and 43.628 μm and 44.683 μm and 48.031 μm and 42.133 μm and 40.545 μm and 27.320 μm and 47.341 μm and 47.624 μm and 47.337 μm. Besides, under setting [2], the “Thickness of INL (μm), Distance from Optic Disk 900 μm” value was 38.448 μm and 33.242 μm and 40.306 μm and 28.655 μm and 32.584 μm and 30.110 μm and 27.670 μm and 26.653 μm and 27.205 μm and 46.278 μm and 47.196 μm and 49.419 μm and 26.256 μm and 28.272 μm and 28.572 μm and 28.638 μm and 29.653 μm and 28.909 μm and 18.887 μm and 19.638 μm and 20.068 μm and 28.079 μm and 29.083 μm and 31.101 μm and 27.776 μm and 27.037 μm and 27.422 μm and 33.221 μm and 42.252 μm and 40.931 μm; the “Thickness of IPL (μm), Distance from Optic Disk 900 μm” value was 53.305 μm and 54.992 μm and 50.505 μm and 49.780 μm and 48.950 μm and 49.327 μm and 45.307 μm and 46.968 μm and 47.454 μm and 59.185 μm and 57.507 μm and 59.952 μm and 47.370 μm and 46.144 μm and 43.062 μm and 44.289 μm and 45.534 μm and 44.647 μm and 26.506 μm and 30.220 μm and 35.348 μm and 47.148 μm and 37.774 μm and 39.021 μm and 47.795 μm and 46.694 μm and 44.145 μm and 52.722 μm and 49.687 μm and 46.942 μm. For the same molecule, under setting [3], the “Thickness of INL (μm), Distance from Optic Disk 900 μm, Mean” value was 37.332 μm and 30.450 μm and 27.176 μm and 47.631 μm and 27.700 μm and 29.067 μm and 19.531 μm and 29.421 μm and 27.412 μm and 38.801 μm; the “Thickness of IPL (μm), Distance from Optic Disk 900 μm, Mean” value is 52.934 μm and 49.352 μm and 46.576 μm and 58.881 μm and 45.525 μm and 44.823 μm and 30.691 μm and 41.314 μm and 46.211 μm and 49.784 μm. Further, where the note is “300 μm from optic disk”, the “Thickness of INL (μm)” value stood at 28.96±1.66 μm, the “Thickness of IPL (μm)” value came to 38.05±1.38 μm and the “Thickness of ONL (μm)” value is reported as 42.08±1.66 μm. Besides, for the setting “600 μm from optic disk”, the “Thickness of INL (μm)” value worked out at 31.17±2.21 μm, the “Thickness of IPL (μm)” value turned out to be 44.01±2.11 μm and the “Thickness of ONL (μm)” value amounted to 45.28±1.75 μm. Under “900 μm from optic disk”, the “Thickness of INL (μm)” value came out at 31.45±2.48 μm, the “Thickness of IPL (μm)” value is listed as 46.61±2.34 μm and the “Thickness of ONL (μm)” value stood at 45.02±1.52 μm. Under setting [4], the “Thickness of ONL, distance from optic disk 300 μm (single measurement)” value was 49.987 μm and 47.894 μm and 44.120 μm and 44.371 μm and 45.163 μm and 41.953 μm (2×) and 41.468 μm and 43.326 μm and 44.787 μm and 50.806 μm and 50.609 μm and 36.032 μm and 35.996 μm and 37.658 μm and 33.339 μm and 36.442 μm and 39.921 μm and 32.751 μm and 35.889 μm and 35.090 μm and 45.922 μm and 43.490 μm and 44.532 μm and 39.787 μm and 38.794 μm and 36.469 μm and 48.975 μm and 47.935 μm and 47.053 μm; the “Thickness of ONL, distance from optic disk 600 μm (single measurement)” value is 54.862 μm and 55.200 μm and 39.132 μm and 42.030 μm and 46.694 μm and 48.910 μm and 53.036 μm and 51.036 μm and 37.502 μm and 37.761 μm and 41.216 μm and 41.515 μm and 39.682 μm and 37.237 μm and 46.859 μm and 44.945 μm and 44.217 μm and 44.145 μm and 50.162 μm and 48.259 μm and 48.902 μm and 41.131 μm and 49.194 μm and 53.714 μm and 39.721 μm and 42.784 μm and 37.125 μm and 46.818 μm and 44.498 μm and 50.125 μm; the “Thickness of ONL, distance from optic disk 900 μm (single measurement)” value was 50.646 μm and 51.429 μm and 55.123 μm and 43.100 μm and 44.611 μm and 41.813 μm and 43.865 μm and 45.150 μm and 42.936 μm and 50.620 μm and 52.065 μm and 51.575 μm and 38.927 μm and 44.018 μm and 42.314 μm and 45.648 μm and 44.179 μm and 43.513 μm and 35.404 μm and 34.065 μm and 37.439 μm and 46.755 μm and 42.208 μm and 44.217 μm and 44.685 μm and 43.759 μm and 46.364 μm and 47.690 μm and 47.148 μm and 49.406 μm. Under setting [5], the “Inner nuclear layer (INL) thickness compared with the control group, in words” value is listed as “no obvious change was observed” and the “Outer nuclear layer (ONL) thickness compared with the control group, in words” value was “statistically significant differences were observed at measurement sites between 600 to 900 μm from the optic disk”. Besides, under “test group 4 (positive control, intravenous), 300 to 900 μm from the optic disk”, the “Inner plexiform layer (IPL) thickness compared with the control group, in words” value is on record as “statistically significant suppression of retinal damage was shown at all measurement sites”.
